Measured values from US20050009061A1, “Anther-specific genes, their promoters, and uses of the same” (priority 2003, published 2005).

Legend:
Assay type in all cases: in vivo, rice (Nipponbare)
Details in all cases: mRNA in rice leaf sheaths after hormone treatment, Northern blotting (FIG. 2)
[1] = system: eight types of tubulin (β-tubulin mRNA expression in rice leaf sheaths); assay: Northern blotting of hormone specificity in rice leaf sheaths, all eight β-tubulins
Procedure: (§1) After treatment with each hormone, Northern blotting using specific probes was performed to confirm the mRNA expression in rice leaf sheaths. C: No treatment; GA: gibberellin; BL: brassinolide; ABA: abscisic acid; IAA: auxin; BA: cytokinin.
(§2) Rice (variety: Nipponbare) was grown under conditions of 600 μmol/m^2s white fluorescent light at 25° C., 75% humidity, and under a twelve-hour day/night cycle. Commercially available high-grade gibberellin (GA3), brassinolide (BL), auxin (IAA), cytokinin (BA), and abscisic acid (ABA) were used. RNA for RNA blotting analysis was extracted using Chomczynski and Sacchi's method (Chomczynski, P. and Sacchi, N., 1987, Anal. Biochem., 162: 156-159). An oligotex-dT-30 mRNA purification kit (Takara) was used to prepare mRNA for microarray analysis.
(§3) Primers were constructed specifically for eight types of β-tubulin, respectively. PCR was carried out using each β-tubulin EST clone as a template, and using a T3 primer and a primer specific to the 3′-untranslated region of each β-tubulin. […]
(§4) About 0.5 g of tissue samples rapid frozen in liquid nitrogen was ground to a powder using a mortar and a pastle, and total RNA was prepared by the methods of Chomczynski and Sacchi (Chomczynski, P. and Sacchi, N., 1987, Anal. Biochem., 162: 156-159). […] The expression amount was analyzed using image analysis apparatus (Amersham Pharmacia Biotech).

OsTUB5 = assay: Northern blotting of hormone specificity in rice leaf sheaths, OsTUB5
Procedure: as §1, §2, §3, §4

OsTUB7 = assay: Northern blotting of hormone specificity in rice leaf sheaths, OsTUB7
Procedure: as §1, §2, §3, §4

OsTUB6 = assay: Northern blotting of hormone specificity in rice leaf sheaths, OsTUB6
Procedure: as §1, §2, §3, §4

Row | Compound | expression of all eight types of tubulin [1] | expression of OsTUB5 (OsTUB5) | expression of OsTUB7 (OsTUB7) | expression of OsTUB6 (OsTUB6)
1 | CC1=CC(=O)CC(C)(C)[C@@]1(O)/C=C/C(C)=C\C(=O)O [abscisic acid] | suppressed | – | – | –
2 | CC(C)[C@H](C)[C@@H](O)[C@H](O)[C@@H](C)[C@H]1CC[C@H]2[C@@H]3COC(=O)[C@H]4C[C@H](O)[C@H](O)C[C@]4(C)[C@H]3CC[C@]12C [brassinolide] | – | increased | increased | increased
3 | gibberellin | – | markedly increased | markedly increased | markedly increased
